The MIC80 is the lowest concentration that inhibits either 80% of growth or 80% of the strains tested, depending on the study. A high value points to weaker potency. As usually defined, the MIC is the lowest concentration that inhibits growth of the organism. A higher MIC goes with a need for much substance.

The results in this text go back to ChEMBL document CHEMBL4396865, “Current advances of triazole alcohols derived from fluconazole: Design, in vitro and in silico studies” (2019).

In brackets after ≈: the same amount, converted by molar mass.

Holding throughout (format): functional
For experiment [1], the system named is Candida tropicalis. In words: Antifungal activity against Candida tropicalis. The following applies: Candida tropicalis.
The test system of experiment [2] is Cryptococcus neoformans. Nature of the experiment: Antifungal activity against Cryptococcus neoformans. The following applies: Cryptococcus neoformans.
In experiment [3] the test system is Candida parapsilosis. In words: Antifungal activity against Candida parapsilosis. To be noted: Lodderomyces parapsilosis.
The test system of experiment [4] is Candida albicans. In words: Antifungal activity against Candida albicans. To be noted: Candida albicans.
Another experiment relates to Pichia kudriavzevii. Nature of the experiment: Antifungal activity against Candida krusei.
Experiment [5] has as its system Cryptococcus neoformans. In words: Antifungal activity against Cryptococcus neoformans after 72 hrs by NCCLS protocol based method.
The subject of a further experiment is Fonsecaea compacta. In words: Antifungal activity against Fonsecaea compacta after 24 hrs by NCCLS protocol based method.
The subject of experiment [6] is Candida albicans. In words: Antifungal activity against Candida albicans after 24 hrs by NCCLS protocol based method.
Experiment [7] relates to Candida parapsilosis. Nature of the experiment: Antifungal activity against Candida parapsilosis after 24 hrs by NCCLS protocol based method. To be noted: Lodderomyces parapsilosis.
The test system of experiment [8] is Candida tropicalis. Nature of the experiment: Antifungal activity against Candida tropicalis after 24 hrs by NCCLS protocol based method.
Another experiment deals with Trichophyton rubrum. Nature of the experiment: Antifungal activity against Trichophyton rubrum after 7 days by NCCLS protocol based method. To be noted: 168 h.
The next experiment relates to Nannizzia gypsea. In words: Antifungal activity against Microsporum gypseum after 7 days by NCCLS protocol based method. To be noted: 168 h.

`Cc1ccc(NC(=O)CN(C)CC(O)(Cn2cncn2)c2ccc(F)cc2F)c(C)c1` (stereo not drawn): the MIC80 was 0.25 to 1 µg/mL (≈ 0.582 to 2.33 µM) with Candida tropicalis [1]; 0.0156 µg/mL (≈ 0.0363 µM) with Cryptococcus neoformans [2]; 0.25 to 1 µg/mL (≈ 0.582 to 2.33 µM) in the experiment on Candida parapsilosis [3]; 0.0156 µg/mL (≈ 0.0363 µM) with Candida albicans [4]; 0.25 to 1 µg/mL (≈ 0.582 to 2.33 µM) in the experiment with Pichia kudriavzevii.

As for `CCCc1ccc(C(=O)OC2CCN(CC(O)(Cn3cncn3)c3ccc(F)cc3F)CC2)cc1` (stereo not drawn), the MIC80 with Cryptococcus neoformans [5], in the experiment with Fonsecaea compacta, against Candida albicans [6], in the experiment with Candida parapsilosis [7], against Candida tropicalis [8] and in the experiment on Trichophyton rubrum was 0.0039 to 0.0625 µg/mL (≈ 0.00805 to 0.129 µM) in each case.

Turning to `COc1ccccc1NC(=O)CN(C)CC(O)(Cn1cncn1)c1ccc(F)cc1F` (stereo not drawn), the MIC80 in the experiment with Candida tropicalis [1] was 0.25 to 1 µg/mL (≈ 0.579 to 2.32 µM); against Cryptococcus neoformans [2], 0.0156 µg/mL (≈ 0.0362 µM); in the experiment on Candida parapsilosis [3], 0.25 to 1 µg/mL (≈ 0.579 to 2.32 µM); against Candida albicans [4], 0.0156 µg/mL (≈ 0.0362 µM); in the experiment on Pichia kudriavzevii, 0.25 to 1 µg/mL (≈ 0.579 to 2.32 µM).

As for `CN(CCCOc1ccccc1Cl)CC(O)(Cn1cncn1)c1ccc(F)cc1F` (stereo not drawn), the minimum inhibitory concentration (MIC) in the experiment with Cryptococcus neoformans [5], with Candida albicans [6], with Nannizzia gypsea, against Candida tropicalis [8] and against Trichophyton rubrum was 1 to 16 ng/mL (≈ 0.00229 to 0.0366 µM) throughout.

`CN(CC(=O)Nc1ccc(OC(F)(F)F)cc1)CC(O)(Cn1cncn1)c1ccc(F)cc1F` (stereo not drawn): the MIC80 against Candida tropicalis [1] is 0.25 to 1 µg/mL (≈ 0.515 to 2.06 µM); in the experiment with Cryptococcus neoformans [2], 0.0156 µg/mL (≈ 0.0321 µM); in the experiment with Candida parapsilosis [3], 0.25 to 1 µg/mL (≈ 0.515 to 2.06 µM); against Candida albicans [4] it was 0.0156 µg/mL (≈ 0.0321 µM); against Pichia kudriavzevii it was 0.25 to 1 µg/mL (≈ 0.515 to 2.06 µM).

In the case of `Cc1ccc(OCCCN(C)CC(O)(Cn2cncn2)c2ccc(F)cc2F)cc1` (stereo not drawn), the MIC against Cryptococcus neoformans [5], in the experiment on Candida albicans [6], in the experiment on Nannizzia gypsea, in the experiment with Candida tropicalis [8] and in the experiment with Trichophyton rubrum was 1 ng/mL (≈ 0.0024 µM) throughout.

For the molecule `CCCCCc1ccc(C(=O)OC2CCN(CC(O)(Cn3cncn3)c3ccc(F)cc3F)CC2)cc1` (stereo not drawn), the MIC80 with Cryptococcus neoformans [5], against Fonsecaea compacta, with Candida albicans [6], with Candida parapsilosis [7], in the experiment with Candida tropicalis [8] and in the experiment with Trichophyton rubrum was 0.0039 to 0.0625 µg/mL (≈ 0.00761 to 0.122 µM) in each case.

Regarding `CN(CC(=O)Nc1ccc(C(C)(C)C)cc1)CC(O)(Cn1cncn1)c1ccc(F)cc1F` (stereo not drawn), the MIC80 was 0.25 to 1 µg/mL (≈ 0.546 to 2.19 µM) with Candida tropicalis [1]; 0.0156 µg/mL (≈ 0.0341 µM) in the experiment with Cryptococcus neoformans [2]; 0.25 to 1 µg/mL (≈ 0.546 to 2.19 µM) against Candida parapsilosis [3]; 0.0156 µg/mL (≈ 0.0341 µM) against Candida albicans [4]; 0.25 to 1 µg/mL (≈ 0.546 to 2.19 µM) with Pichia kudriavzevii.

In the case of `Cc1cccc(OCCCN(C)CC(O)(Cn2cncn2)c2ccc(F)cc2F)c1` (stereo not drawn), the MIC in the experiment with Cryptococcus neoformans [5], with Candida albicans [6], against Nannizzia gypsea, against Candida tropicalis [8] and in the experiment on Trichophyton rubrum was 1 ng/mL (≈ 0.0024 µM) throughout.

For the molecule `CN(CCCOc1ccccc1[N+](=O)[O-])CC(O)(Cn1cncn1)c1ccc(F)cc1F` (stereo not drawn), the minimal inhibitory concentration (MIC) against Cryptococcus neoformans [5], against Candida albicans [6], in the experiment with Nannizzia gypsea, against Candida tropicalis [8] and with Trichophyton rubrum was 1 to 16 ng/mL (≈ 0.00223 to 0.0358 µM) throughout.

Consider `Cc1ccc(NC(=O)CN(C)CC(O)(Cn2cncn2)c2ccc(F)cc2F)cc1C` (stereo not drawn), for which the MIC80 with Candida tropicalis [1] is 0.25 to 1 µg/mL (≈ 0.582 to 2.33 µM); in the experiment on Cryptococcus neoformans [2], 0.0156 µg/mL (≈ 0.0363 µM); against Candida parapsilosis [3] it was 0.25 to 1 µg/mL (≈ 0.582 to 2.33 µM); with Candida albicans [4], 0.0156 µg/mL (≈ 0.0363 µM); with Pichia kudriavzevii, 0.25 to 1 µg/mL (≈ 0.582 to 2.33 µM).

For `CN(CC(=O)Nc1ccc(F)cc1)CC(O)(Cn1cncn1)c1ccc(F)cc1F` (stereo not drawn), the MIC80 against Candida tropicalis [1] was 0.25 to 1 µg/mL (≈ 0.596 to 2.38 µM); against Cryptococcus neoformans [2], 0.0156 µg/mL (≈ 0.0372 µM); in the experiment with Candida parapsilosis [3], 0.25 to 1 µg/mL (≈ 0.596 to 2.38 µM); with Candida albicans [4], 0.0156 µg/mL (≈ 0.0372 µM); in the experiment with Pichia kudriavzevii it was 0.25 to 1 µg/mL (≈ 0.596 to 2.38 µM).

Turning to `CCCCc1ccc(C(=O)OC2CCN(CC(O)(Cn3cncn3)c3ccc(F)cc3F)CC2)cc1` (stereo not drawn), the MIC80 in the experiment with Cryptococcus neoformans [5], with Fonsecaea compacta, with Candida albicans [6], with Candida parapsilosis [7], in the experiment with Candida tropicalis [8] and against Trichophyton rubrum was 0.0039 to 0.0625 µg/mL (≈ 0.00782 to 0.125 µM) in each case.

Regarding `CN(CCCOc1cccc([N+](=O)[O-])c1)CC(O)(Cn1cncn1)c1ccc(F)cc1F` (stereo not drawn), the MIC against Cryptococcus neoformans [5], with Candida albicans [6], against Nannizzia gypsea, with Candida tropicalis [8] and in the experiment with Trichophyton rubrum was 1 to 16 ng/mL (≈ 0.00223 to 0.0358 µM) throughout.

Take `CN(CC(=O)Nc1ccc(Br)cc1)CC(O)(Cn1cncn1)c1ccc(F)cc1F` (stereo not drawn): the MIC80 in the experiment with Candida tropicalis [1] is 0.25 to 1 µg/mL (≈ 0.52 to 2.08 µM); in the experiment with Cryptococcus neoformans [2], 0.0156 µg/mL (≈ 0.0325 µM); with Candida parapsilosis [3], 0.25 to 1 µg/mL (≈ 0.52 to 2.08 µM); with Candida albicans [4], 0.0156 µg/mL (≈ 0.0325 µM); against Pichia kudriavzevii it was 0.25 to 1 µg/mL (≈ 0.52 to 2.08 µM).

On to `CN(CCCOc1ccc(Cl)cc1)CC(O)(Cn1cncn1)c1ccc(F)cc1F` (stereo not drawn), for which the MIC against Cryptococcus neoformans [5], against Candida albicans [6], in the experiment with Nannizzia gypsea, against Candida tropicalis [8] and with Trichophyton rubrum was 1 ng/mL (≈ 0.00229 µM) each time.

For the molecule `CN(CC(=O)Nc1cc(Cl)ccc1Cl)CC(O)(Cn1cncn1)c1ccc(F)cc1F` (stereo not drawn), the MIC80 is 0.25 to 1 µg/mL (≈ 0.532 to 2.13 µM) in the experiment on Candida tropicalis [1]; 0.0156 µg/mL (≈ 0.0332 µM) with Cryptococcus neoformans [2]; 0.25 to 1 µg/mL (≈ 0.532 to 2.13 µM) in the experiment on Candida parapsilosis [3]; 0.0156 µg/mL (≈ 0.0332 µM) in the experiment with Candida albicans [4]; 0.25 to 1 µg/mL (≈ 0.532 to 2.13 µM) in the experiment on Pichia kudriavzevii.

Regarding `CCC(C)n1ncn(-c2ccc(N3CCN(c4ccc(OCC5COC(Cn6cncn6)(c6ccc(Cl)cc6Cl)O5)cc4)CC3)cc2)c1=O` (stereo not drawn) [ITRACONAZOLE], the minimum inhibitory concentration (MIC) in the experiment with Cryptococcus neoformans [5], against Candida albicans [6], against Nannizzia gypsea, in the experiment with Candida tropicalis [8] and with Trichophyton rubrum was 62.5 ng/mL (≈ 0.0886 µM) each time.
